Columns and labels:
H4IIE hepatoma cells [1] = assay: flow cytometry, bromodeoxyuridine incorporation in proliferating cells; assay type: cell-based; details: 25 μM MIBG, 48 hours; FIG. 4
Method: Additional verification that MIBG blocked cell proliferation was obtained using flow cytometry analysis. Proliferating H4IIE cells (<40% confluent) were incubated for 48 hours in the presence or absence (untreated control or containing MIBA) of 25 μM MIBG. The cells were pulse labeled with bromodeoxyuridine (BrdU) 2 hours before harvest to label replicating DNA. Cells were released by trypsinization, collected by centrifugation and permeabilized with Triton X-100 (1%). Replicated DNA was labeled with an anti-BrdU antibody conjugated to FITC (fluorescein isothiocyanate), while total DNA was labeled with propidium iodide. The FITC and propidium iodide labels were detected at 514 nm and 600 nm, respectively, with a Coulter flow cytometer™ (excitation wavelength 488 nm), and number of cells containing these fluors were quantified. The data were plotted as cells with propidium iodide versus cells with BrdU. […] To summarize, the results described above indicate that MIBG is a potent inhibitor of cell proliferation. Furthermore, the cellular process affected by MIBG is active throughout the cell cycle. This conclusion is based on the fact that there is no accumulation of cells at a specific phase of the cell cycle. In addition, it is of note that there is no apparent decrease in cell number or an increase in smaller cells, both characteristics of cell death.

smooth muscle cells [2] = assay: Boyden chamber smooth muscle cell migration in response to Angiotensin II; assay type: cell-based; details: 20 μM; 10 μM Angiotensin II in lower compartment; FIG. 17
Method: Specifically, smooth muscle cells were seeded into the upper chamber of a Boyden chamber, which consists of two compartments that are separated by a permeable membrane. […] Specifically, migration to the lower compartment was determined by counting cells on the underside of the membrane. Data are presented as means ± standard error for six independent determinations.

H4IIE hepatoma cells [3] = assay: DNA synthesis (3H-thymidine incorporation) in H4IIE cells; assay type: cell-based
Method: Incorporation of uridine or thymidine was used to define the change in rate of […] synthesis, respectively, in response to a mitogen such as insulin. Specifically, quiescent H4IIE cells were prepared by placing the cultures (in 24-well dishes) into serum-free a-minimal essential medium for 3 days. It is of note that the normal growth media for H4IIE cells is α-MEM containing 10% fetal bovine serum (FBS). After reaching quiescence, the cells were stimulated with 1 μM insulin and incubated for either 6 hours or 24 hours in the presence of 1 μCi/ml ^3H-uridine or ^3H-thymidine, respectively. Cells were subsequently lysed with detergent and the nucleic acids precipitated with 5% trichloroacetic acid. The precipitated material was collected on glass fibre filters and the radioactive content measured by scintillation counting. […] Furthermore, while complete inhibition of DNA synthesis by MIBG is obtained at approximately 20 μM, higher concentrations decrease basal DNA synthesis below control levels.

[4] = system: Friend erythroleukemia cells; assay: Friend cell differentiation; assay type: cell-based
From the text: It is of note however that MIBG acts at a point in the differentiation pathway that is distinct from 3-aminobenzamide.

smooth muscle cells [5] = details: cited from earlier work
L6 myoblasts = assay: L6 myoblast differentiation; assay type: cell-based; details: 25 μM; 2.5% horse serum; 4 days; FIG. 32
porcine femoral artery = assay: balloon angioplasty of the porcine femoral artery in vivo; design: species or system pigs; details: 14 days
From the text: To test the effectiveness of MIBG under in vivo conditions, this compound was applied to the femoral artery after balloon angioplasty. This model provided a means of testing both MIBG and the method of application. Specifically, male castrated farm pigs (25-30 kg) were anaesthetized and maintained on isoflurane throughout the procedure. With the pig in a supine position, the left femoral artery was exposed from the bifurcation of the femoral and superficial femoral arteries to the point of insertion of the femoral artery into the groin. A mixture of nitroglycerin and papaverine was applied to the vessel and the area was covered with a saline-soaked sponge to keep the tissues moist. The right femoral artery was also exposed, treated and covered with a sponge. The left femoral was then clamped at both groin insertion (proximal) and bifurcation (distal) points, and an arteriotomy made at the bifurcation. The balloon (6.0×20 mm) was inserted through the arteriotomy in a retrograde manner (i.e. toward the groin) to a position 20 mm from the arteriotomy and the proximal clamp removed. The balloon was inflated for 1 minute, deflated and carefully removed, and the arteriotomy was closed with 6.0 ProleneTM suture. MIBG in combination with a biocompatible glue, in this example, Tisseel®, was applied to the surface of the vessel extending from the arteriotomy to the proximal region past the site of balloon inflation. The fibrin glue ensured that MIBG slowly diffused into the vessel. Furthermore, the fibrin glue helps to retain MIBG at the site for several days. The right femoral was handled as described above. […] The extent of restenosis was subsequently monitored by morphometry. […] Digital images were captured with a DAGE-MTI CCD camera and analyzed with SigmaScan Software. The neointimal and medial areas are quantified and used to calculate the neointimal index: neointimal area/medial area. […] Even though the vehicle cannot be detected after 14 days, we conclude that it remains for the minimum period necessary.

Substance: meta-iodobenzylguanidine [MIBG]
- bromodeoxyuridine incorporation (DNA synthesis) (H4IIE hepatoma cells [1]): no bromodeoxyuridine incorporation is observed
- smooth muscle cell migration (smooth muscle cells [2]): inhibited smooth muscle cell migration
- concentration for complete inhibition of DNA synthesis (H4IIE hepatoma cells [3]; 1 μM insulin, 24 hours, FIG. 2): approximately 20 μM
- inhibition of DNA synthesis (thymidine incorporation) (H4IIE hepatoma cells [3]; H4IIE cells): inhibits DNA synthesis
- effect on Friend cell differentiation [4]: inhibits Friend cell differentiation following commitment
- DNA synthesis (thymidine uptake) (smooth muscle cells [5]): had no effect on DNA synthesis
- cell number (smooth muscle cells [5]): prevents an increase in cell number
- production of collagen type I (smooth muscle cells [5]): decreased the production of collagen type I
- effect on L6 myoblast differentiation (L6 myoblasts): inhibits differentiation of L6 myoblasts at an early stage
- restenosis after balloon angioplasty (porcine femoral artery; 25 mM in a 1.0 ml Tisseel bolus applied to vessel surface, FIGS. 20 and 21): effectively prevents restenosis
- medial fibrosis or cell loss (porcine femoral artery; 25 mM in a 1.0 ml Tisseel bolus, FIG. 20): no evidence of medial fibrosis
